# From US20210154156A1, “APPLICATION OF COMPOUND IN INHIBITING AB ACCUMULATION AND TREATING ALZHEIMER'S DISEASE” (NORTHEAST NORMAL UNIVERSITY, priority 2018, published 2021)
# Structures can show the parent of a compound that is named as a salt.
# What was measured:
# Aβ protein monomer = molecular target: T1, Aβ protein monomer (Homo sapiens, UniProt P05067); experiment: Circular dichroism spectrum experiment (CD) of Aβ β-sheet formation; format: biochemical; conditions: Aβ 20 uM; drug 10, 20, 40 uM; 12 hours 37° C.
# T1 construct: purchased Nanjing Elutrian Biological Co. Ltd
# T1 sequence (P05067 672-713 limits assumed): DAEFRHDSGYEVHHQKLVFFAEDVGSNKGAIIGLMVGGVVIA
# Method: The A beta monomer was mixed with a drug, the final concentration of Aβ was 20 uM, the final concentrations of the drug were 0 uM, 10 uM, 20 uM and 40 uM respectively, and after 12 hours incubation at 37° C., a J-810 spectrometer (Jayasco, Japan) was used for detection. The wavelength range was 190-250 nm, the resolution was 0.5 nm, the spectrum width was 2 nm, the scanning speed was 100 nm/min, the response time was 1 s, and the measuring temperature was normal temperature. The solution was added to a quartz cuvette with an optical path of 0.1 mm for measurement, and each experiment was repeated three times. Subtracting the buffer curve from each scan curve as the experimental result, each experiment was repeated three times, and the average value was given.
# [1] = test system: APP/PS1 double transgenic mice; experiment: Morris water maze in APP/PS1 transgenic mice; format: in vivo; conditions: intragastric administration for 2 months
# Description: (§1) The wild-type (WT) and APP/PS1 double transgenic mice used in the experiment of the present invention were purchased from the Model Animal Research Institute of Nanjing University, and the mouse genes were identified in strict accordance with the PCR method provided.
# In the Morris water maze experiment, the mouse water maze training was two days (data not recorded). The mice were placed into the pool from 4 entry points (quadrants) facing the pool wall. The platform was hidden 1 cm underwater, and the water temperature was kept at 23° C. , and the training lasted for 2 minutes. […] The experiment phase started from the third day, and the experiment was continued for 6 days. Each mouse was tested once a day. During the experiment, the mice were respectively placed into the pool from 4 entry points (quadrants) facing the pool wall.
# The time was recorded from the mice entering the water to the mice finding and staying in the underwater hidden platform. That was called as the incubation period. On the eighth day, the platform was removed, and each mouse was launched from the farthest position of the original platform and swam freely for 2 minutes. The swimming time of the animal in the target quadrant (the area where the platform located), the number of times of traversing the platform, the path and other main parameters were tracked and recorded by the miniature camera and analyzed.
# [2] = test system: APP/PS1 double transgenic mice; experiment: Y maze in APP/PS1 transgenic mice; format: in vivo; conditions: after two months of treatment
# Description: as §1
# In the Y maze experiment, three black striped long arms were marked A, B, and C with the same appearance were combined in a Y shape. The mouse was put in the A arm, and recorded as an error if it turned back from the other long arm during free movement, such as ABA, BCB, etc., recalculated with this arm as the starting point, such as ABACBABCBA. The experiment time for each mouse lasted 8 minutes. When the experiment was completed, the Y labyrinth was cleaned and disinfected with alcohol, and the experiment was performed on the next mouse after drying.
# APP/PS1 transgenic mice = experiment: Thioflavin S and Congo red staining of brain Aβ plaques in APP/PS1 transgenic mice; format: in vivo
# Description: as §1
# 10-month-old AD mice were anesthetized with 0.4% pentobarbital sodium. Blood was taken by perfusing the atria. 4% paraformaldehyde was perfused for whole body fixation. The brain tissue was taken and weighed. The hemibrains were put into 4% paraformaldehyde solution and used for histopathology. The other half was stored in a cryotube at −80° C. for biochemical analysis. The brain tissues fixed with 4% paraformaldehyde were embedded in wax and sliced. The plaques in the cerebral cortex and hippocampus were stained with Thioflavin S and Congo Red. Pathological images were obtained by digital microscope and fluorescence microscope and quantitatively analyzed.
# [3] = test system: human neuroma blasts SH-SY5Y; experiment: MTT test of Aβ42 oligomer-mediated neurotoxicity in SH-SY5Y; format: cell-based
# Method: The cells used in the Aβ42 oligomer-mediated neurotoxicity damage experiment were human neuroma blasts SH-SY5Y, incubated in DME medium of 10% FBS at 37° C. The control group without Aβ protein and the experimental group with added drug were cultured overnight at 37° C. with slow shaking, and transferred to a 96-well cell culture plate containing SH-SY5Y. The final concentration of Aβ protein was 1 uM and the final concentration of drug was 0.25 uM. 0.5 uM, 1 uM and 2 uM, three parallel holes for each concentration, action time 3 hours, MTT method 490 nm wavelength tested 5 times to analyze cell proliferation.
# Aβ42 monomers = molecular target: T2, Aβ42 monomers (Homo sapiens, UniProt P05067); experiment: Thioflavin T test (ThT) of Aβ42 monomer aggregation; format: biochemical; conditions: Aβ 20 uM; drug 10, 20, 40 uM; 37° C. 24 hours; concentration-dependent
# T2 construct: purchased Nanjing Elutrian Biological Co. Ltd
# T2 sequence (P05067 672-713 limits assumed): as above
# Method: The protein A beta protein was provided by Nanjing Elutrian Biological Co. Ltd. and the purity was greater than 95%. The compound macroflavin was provided by Shanghai Yuan-Ye biological company. The Aβ monomer powder was stored at −80° C., standing for 30 minutes at room temperature for the first time, then diluted with hexafluoroisopropanol (HFIP) to 1.0 mg/mL. It stood for at least 2 hours, carrying out ultrasonic 30 minutes to destroy the existing multi-polymer structure, standing and drying at low temperature, was immediately stored at −20° C. Thioflavin T was purchased from Sigma (cargo number T3516-5 G). 0.032 g of THT powder was weighed and dissolved in 20 mL of 20 mM Tris-HCl (pH 7.4) solution to obtain a 5 mM THT mother liquor, and was diluted to 5 uM when used.
# formed Aβ fibers = molecular target: T3, formed Aβ fibers (Homo sapiens, UniProt P05067); experiment: Depolymerization of the formed Aβ fibrous structure (ThT and TEM); format: biochemical
# T3 construct: purchased Nanjing Elutrian Biological Co. Ltd
# T3 sequence (P05067 672-713 limits assumed): as above
# Method: The preparation was the same as that shown in Examples 1 and 2, except that the Aβ42 protein was first incubated at 37° C. for 48 hours, then the drug effect was added, the sample was taken at −20 ° C. every 6 hours, after 48 hours, using all of the samples for ThaT and TEAM tests.
# Aβ42 monomer = molecular target: T4, Aβ42 monomer (Homo sapiens, UniProt P05067); experiment: Transmission electron microscopy (TEM) of Aβ42 fiber formation; format: biochemical; conditions: 37° C. 24 hours; concentration-dependent
# T4 construct: purchased Nanjing Elutrian Biological Co. Ltd
# T4 sequence (P05067 672-713 limits assumed): as above
# Method: The preparation was the same as that of Example 1. Then, the Aβ protein sample was incubated at 37° C. for 24 hours, dropped on the surface of a 300 mesh carbon film copper mesh, dried in air, dyed with 2% (w/v) phosphotungstate sodium salt negative for 30 seconds, standing at room temperature for about 4 hours, then the JEM-100CXII transmission electron microscope system (JEOL Inc., Tokyo, Japan) was used to detect and take pictures with an acceleration voltage of 80 kV.
ThT fluorescence intensity (Aβ42 monomer aggregation) vs control group without medicine (Aβ42 monomers),"ThT fluorescence intensity of pre-formed Aβ fibers vs non-dosing control (formed Aβ fibers; Aβ42 pre-incubated 37° C. 48 hours, then drug, sampled every 6 hours to 48 hours)",Depolymerization of formed Aβ fibers (TEM) (formed Aβ fibers; after 48 hours of treatment),"Aβ protein fiber density, length and width (TEM) (Aβ42 monomer)",SMILES,Formation of the β-sheet structure of Aβ monomer (CD) (Aβ protein monomer),Effect on improving symptoms of AD mice (Morris water maze) [1],Y maze effect compared with Arishen treatment group [2],"Correct rate in Y maze of AD mice ([2]; saline AD about 58%, WT about 82%)",Plaque effect compared with positive control nourishing blood serum brain drug group (APP/PS1 transgenic mice; 10-month-old AD mice),"Number of stained Aβ deposition plaques in cortex or hippocampus (Thioflavin S, Congo red) vs normal saline AD mice (APP/PS1 transgenic mice; 10-month-old AD mice after 2 months intragastric administration)","MTT absorbance value (protection from Aβ42 oligomer-mediated neurocytotoxicity) vs control group without drug ([3]; Aβ 1 uM, drug 0.25, 0.5, 1, 2 uM, 3 hours, 490 nm)",MTT effect compared with positive control curcumin ([3]; when the concentration was low),Incubation period for AD mice to find the platform (Morris water maze) ([1]; 8-month-old APP/PS1 mice),Number of times AD mice crossed the virtual platform (Morris water maze) ([1]; platform removed)
–,–,–,–,"COc1cc2c(cc1OC)C(=O)C(CC1CCN(Cc3ccccc3)CC1)C2 (stereo not drawn) [Arishen, donepezil hydrochloride, reference compound]",had no effect,limited effect,–,–,–,–,–,–,–,–
significantly decreased,remained basically unchanged,could not depolymerize,decreased significantly,"Cc1cc(O)c2c(c1)C(=O)c1cc(O)cc(O)c1C2=O [emodin, 1,3,8-trihydroxy-6-methylanthracene-9, 10-dione]",significantly reduce,–,better than the Arishen treatment group,increased significantly,slightly better,statistically significant reduction,increased significantly,stronger than that of the positive control curcumin,significantly reduced,significantly improved
